Test results published in publication PMC11899342, “Novel Triazeneindole Antibiotics: Synthesis and Hit-to-Lead Optimization” (International Journal of Molecular Sciences, 2025).
Values after ≈ are worked out from the molar mass of the structure shown. Like-named read-outs stand apart in the source and are kept apart here.

How the values were obtained:
[1] = system: human embryonic fibroblasts (HEFs); assay: MTT cytotoxicity on human embryonic fibroblasts; assay type: cell-based; details: 24 h, ND = non-toxic in tested concentrations (up to 50 mg/L); for IC50: Homo sapiens, Fibroblast
Protocol: (§1) The primary screening of 22 substances was performed on human embryonic fibroblasts (HEFs). […] The HepG2 cell line was obtained from the American Type Culture Collection (ATCC cat. # HB-8065). The primary HEF cells (normal human embryonic fibroblasts) were derived from human embryonic stem cells. The cells were cultured in DMEM/F12 (1:1) medium containing 10% fetal bovine serum (Invitrogen, Carlsbad, CA, USA) at 37 °C and 5% CO2, according to standard mammalian tissue culture protocols and sterile technique. […] The incubation time with the substance was 24 h for all substances and cell lines. Cell detachment by trypsin, centrifugation, and counting in a hemocytometer were performed 16 h before the addition of the substance. For correct counting of the HepG2 cells, the cell suspension was passed through a syringe needle to get rid of cell aggregates. The cells were placed in the wells of a 96-well plate. The number of cells was selected according to the properties of the cell line and the final optical density in the experiment. Fibroblasts and hepatocytes were used in the amount of 10 thousand cells per well in 100 μL of DMEM/F12 medium supplemented with 10% fetal bovine serum. The substances were added to 100 µL of medium in the wells so that the final concentrations were 50, 25, 12.5, 6.25, 3.125, and 1.62 mg/L. The final well volume was 200 µL. The medium containing fetal bovine serum, without added substances, was used as a negative control. After 24 h, excessive amounts of medium were discarded. A total of 30 µL of MTT solution (5 mg/mL in PBS) was added to each well. After the precipitation of formazan crystals (3 h incubation), they were dissolved using 100 μL of dimethyl sulfoxide. The optical density (OD) was measured at 570 nm using a microplate reader (Eppendorf). For every condition, the cell viabilities were assessed in at least three independent experiments for every cell culture. Cell survival was calculated using the following formula:(OD of treated cells − OD blank)/(OD of control cells − OD blank) × 100%, where OD blank represents the OD values in wells without cells but with the addition of the MTT and DMSO solutions. The results were presented in the form of cytotoxicity curves, and the graphs were also plotted in a Microsoft Excel program; the calculation of the IC50 half-maximal inhibition concentration values was performed in a GraphPad Prism 6.0 (GraphPad Software Inc., San Diego, CA, USA) program, based on the equations of the cytotoxicity curves.

[2] = Solubility in water by HPLC; assay type: physicochemical; details: for solubility at 5 min: water, kinetic from dmso stock
Protocol: The solubility of the compounds in water was assessed using HPLC analysis. Two 1.0 mg portions of the test compounds were dissolved in 10 μL of dimethyl sulfoxide; 1.0 mL of acetonitrile was added to one sample (standard), and 1.0 mL of water was added to the second sample (tested sample). Both vials were mixed in a shaker for 5 min, then centrifuged at 10,000 rpm for 5 min. The supernatants were collected and analyzed using Agilent 1290 Infinity (Agilent Technologies, Santa Clara, CA, USA) with a YMC-Triart C18 50 × 2.0 mm, 1.9 μm column. The concentration of the test compound in water was determined by comparing the peak areas of the standard (concentration 1.0 mg/mL) and the tested sample.

MRSA clinical isolates = assay: MIC by broth microdilution against multidrug-resistant MRSA clinical isolates; assay type: cell-based, Staphylococcus aureus; details: for MIC Range Against 8 MRSA Strains: 8 multidrug-resistant MRSA clinical isolates, tested 0.125-1 mg/L; for MIC: Staphylococcus aureus, MRSA
Protocol: Clinical MRSA isolates with multidrug resistance were obtained from the collection of the Research Institute of Antimicrobial Chemotherapy, Smolensk State Medical Academy.
The MICs were determined using a broth microdilution method according to [42]. Briefly, serial dilutions of the tested compounds in 50 µL of Mueller Hinton broth (BD) were prepared in 96-well microplates. The antibiotics vancomycin and linezolid (Sigma-Aldrich, St. Louis, MO, USA) were used as a positive control. Bacterial suspensions of the tested MRSA strains were prepared in the Mueller Hinton broth (BD) with a concentration 1 × 10^6 CFU/mL, and then 50 µL aliquots were added to the prepared microplates. The final concentrations of the antibiotics in the wells were 1, 0.5, 0.25, and 0.125 mg/L, for the tested compounds, and 2 mg/L for vancomycin and linezolid. Negative control (lack of bacterial cells) and growth control (lack of compound) wells were included in all plates. The microplates were incubated at 37 °C for 18 h. The growth was assessed visually after incubation, and the MIC was assumed as the lowest compound concentration at which a noticeable growth of the microorganisms was inhibited (no visible growth). All experiments were conducted in triplicate.

MRSA = assay: Selectivity index (average IC50 on eukaryotic cells / average MIC on MRSA); assay type: cell-based, Staphylococcus aureus; details: average IC50 on eukaryotic cells divided by average MIC on MRSA
Protocol: The selectivity index was calculated for each compound as the average IC50 on eukaryotic cells divided by the average MIC on MRSA (Table 2).

[3] = system: HepG2 human liver carcinoma cells; assay: MTT cytotoxicity (hepatotoxicity) on HepG2; assay type: cell-based; details: for IC50: Homo sapiens, HepG2, 24 h
Protocol: as §1

[4] = read-out: Solubility in water, mass concentration
[5] = read-out: Solubility in water, molar concentration
[6] = Figure 6, MRSA strain 2, read-out: MIC against 8 MRSA strains
[7] = Figure 6, MRSA strain 7, read-out: MIC against 8 MRSA strains
[8] = Figure 6, MRSA strain 8, read-out: MIC against 8 MRSA strains
[9] = Figure 6, MRSA strain 9, read-out: MIC against 8 MRSA strains
[10] = Figure 6, MRSA strain 13, read-out: MIC against 8 MRSA strains
[11] = Figure 6, MRSA strain 21, read-out: MIC against 8 MRSA strains
[12] = Figure 6, MRSA strain 48, read-out: MIC against 8 MRSA strains
[13] = Figure 6, MRSA strain 50, read-out: MIC against 8 MRSA strains

solubility at 5 min [2, 4] | solubility at 5 min [2, 5] | MIC Range Against 8 MRSA Strains (MRSA clinical isolates) | MIC (MRSA clinical isolates; [6]) | MIC (MRSA clinical isolates; [7]) | MIC (MRSA clinical isolates; [8]) | MIC (MRSA clinical isolates; [9]) | MIC (MRSA clinical isolates; [10]) | MIC (MRSA clinical isolates; [11]) | MIC (MRSA clinical isolates; [12]) | MIC (MRSA clinical isolates; [13]) | MIC (MRSA clinical isolates; 8 MRSA strains, read-out: lowest MIC values against most tested strains) | Structure (SMILES) | IC50 [1] | Selectivity Index (MRSA) | IC50 [3] | IC50 HEF [1] | Solubility in water, mass concentration [2] | IC50 HepG2 ([3]; 24 h)
11.7 µg/mL | 350 µM | 0.5 µg/mL (≈ 1.5 µM) | 0.5 µg/mL (≈ 1.5 µM) | 0.5 µg/mL (≈ 1.5 µM) | 0.5 µg/mL (≈ 1.5 µM) | 0.5 µg/mL (≈ 1.5 µM) | 0.5 µg/mL (≈ 1.5 µM) | 0.5 µg/mL (≈ 1.5 µM) | 0.5 µg/mL (≈ 1.5 µM) | 0.5 µg/mL (≈ 1.5 µM) |  | CCOC(=O)c1[nH]c2cc(F)ccc2c1/N=N/N1CCN(C)CC1 [BX-SI035, Ethyl ester ethyl (E)-6-fluoro-3-((4-methylpiperazin-1-yl)diazenyl)-1H-indole-2-carboxylate] | 20 µg/mL (≈ 60 µM) | 41 | 21 µg/mL (≈ 63 µM) |  |  | 
33.1 µg/mL | 90 µM | 0.5 to 1 µg/mL | 1 µg/mL (≈ 2.88 µM) | 1 µg/mL (≈ 2.88 µM) | 1 µg/mL (≈ 2.88 µM) | 1 µg/mL (≈ 2.88 µM) | 1 µg/mL (≈ 2.88 µM) | 0.5 µg/mL (≈ 1.44 µM) | 1 µg/mL (≈ 2.88 µM) | 0.5 µg/mL (≈ 1.44 µM) |  | CCOC(=O)c1[nH]c2cc(F)ccc2c1/N=N/N1CCCN(C)CC1 [BX-SI039, Ethyl (E)-6-fluoro-3-((4-methyl-1,4-diazepan-1-yl)diazenyl)-1H-indole-2-carboxylate] | 19 µg/mL (≈ 54.7 µM) | 20 | 16 µg/mL (≈ 46.1 µM) |  |  | 
2.77 µg/mL | 10 µM | 0.25 to 0.5 µg/mL | 0.5 µg/mL (≈ 1.5 µM) | 0.5 µg/mL (≈ 1.5 µM) | 0.25 µg/mL (≈ 0.752 µM) | 0.25 µg/mL (≈ 0.752 µM) | 0.5 µg/mL (≈ 1.5 µM) | 0.25 µg/mL (≈ 0.752 µM) | 0.25 µg/mL (≈ 0.752 µM) | 0.25 µg/mL (≈ 0.752 µM) | 0.25 µg/mL (≈ 0.752 µM) | CCOC(=O)c1[nH]c2cc(F)ccc2c1/N=N/N1CCC(C)CC1 [BX-SI045, Ethyl (E)-6-fluoro-3-((4-methylpiperidin-1-yl)diazenyl)-1H-indole-2-carboxylate] | 29 µg/mL (≈ 87.2 µM) | 74 | 22 µg/mL (≈ 66.2 µM) |  |  | 
34.9 µg/mL | 90 µM | 0.5 to 1 µg/mL | 1 µg/mL (≈ 2.71 µM) | 0.5 µg/mL (≈ 1.35 µM) | 0.5 µg/mL (≈ 1.35 µM) | 1 µg/mL (≈ 2.71 µM) | 0.5 µg/mL (≈ 1.35 µM) | 0.5 µg/mL (≈ 1.35 µM) | 0.5 µg/mL (≈ 1.35 µM) | 0.5 µg/mL (≈ 1.35 µM) |  | CCOC(=O)c1[nH]c2cc(F)ccc2c1/N=N/N(C)CCc1ccccn1 [BX-SI048, Ethyl (E)-6-fluoro-3-(3-methyl-3-(2-(pyridin-2-yl)ethyl)triaz-1-en-1-yl)-1H-indole-2-carboxylate] | 13 µg/mL (≈ 35.2 µM) | 28 | 22 µg/mL (≈ 59.6 µM) |  |  | 

Structure (SMILES) | solubility at 5 min [2, 4] | solubility at 5 min [2, 5] | MIC Range Against 8 MRSA Strains (MRSA clinical isolates) | MIC (MRSA clinical isolates; [6]) | MIC (MRSA clinical isolates; [7]) | MIC (MRSA clinical isolates; [8]) | MIC (MRSA clinical isolates; [9]) | MIC (MRSA clinical isolates; [10]) | MIC (MRSA clinical isolates; [11]) | MIC (MRSA clinical isolates; [12]) | MIC (MRSA clinical isolates; [13]) | MIC (MRSA clinical isolates; 8 MRSA strains, read-out: lowest MIC values against most tested strains) | IC50 [1] | Selectivity Index (MRSA) | IC50 [3] | IC50 HEF [1] | Solubility in water, mass concentration [2] | IC50 HepG2 ([3]; 24 h)
CCOC(=O)c1[nH]c2cc(F)ccc2c1/N=N/N(C)CCN(C)C [BX-SI044, Ethyl (E)-3-(3-(2-(dimethylamino)ethyl)-3-methyltriaz-1-en-1-yl)-6-fluoro-1H-indole-2-carboxylate] |  |  | 0.25 to 1 µg/mL |  |  |  |  |  |  |  |  |  |  | 27 |  | 19 µg/mL (≈ 56.7 µM) | 17.55 µg/mL (≈ 52.3 µM) | 13 µg/mL (≈ 38.8 µM)
